Data reported in US10954214B2 (Janssen Pharmaceutica NV, priority 2016, dated 2021).

How the values were obtained:
[1] = target: full-length MALT1 protein (Strep-MALT1(1-824)-His) (Homo sapiens (Human), UniProt Q9UDY8); assay: MALT1 Biochemical Protease Assay (Ac-LRSR-AMC substrate); conditions: 10 nM FL MALT1, 200 μM Ac-LRSR-AMC, 4 h at RT; read-out: MALT1_Biochemical activity (Ac-LRSR-amc) IC50
Procedure, shortened: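 Fluorescence from AMC release off the quenched LRSR substrate was read after a 4 h reaction at RT. Values were normalised to no-enzyme and uninhibited controls and fitted for IC50 and Hill coefficient.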

[2] = tested on: IL10 secretion by TMD8 ABC-DLBCL cells; assay: Human IL10 Mesoscale assay (TMD-8); assay type: cell-based; conditions: Homo sapiens, TMD8; TMD-8 cells, 24 h
Procedure, shortened: (§1)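 TMD8 or OCI-LY3 cells (100,000/well) were exposed to compounds in 9 twofold dilutions from 15 μM to 58.6 nM (0.3% DMSO) for 24 h at 37 °C. Supernatant IL6 and IL10 were quantified by MSD electrochemiluminescence immunoassay. DMSO defined maximum signal and BTK inhibitor RN486 (30 nM–131 pM) defined maximum inhibition.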

[3] = tested on: TMD8 cells; assay: 4-day proliferation assay, TMD8; assay type: cell-based; conditions: Homo sapiens, 96 h, 4 days incubation, CellTiterGLO, read-out: Anti-proliferation: TMD-8 IC50
Procedure, shortened: (§2)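 Each line was plated at 10,000 cells per well for linear growth, with no beta-mercaptoethanol during the assay. OCI-Ly3 cells were below passage 10.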

[4] = tested on: Jurkat cells; assay: PMA Induced IL2 Production In Jurkat Cells; assay type: cell-based; conditions: Homo sapiens, PMA/Ionomycin, 20 h, read-out: IL-2 prod h Jurkat PMA IC50
Procedure: Jurkat cells were maintained in complete RPMI 1640 media containing 10% fetal bovine serum, 10 mM HEPES, 100 units/mL of penicillin and 100 μg/mL of streptomycin. Prior to the assay, compounds were made 2- to 4-fold serial dilutions in DMSO. A volume of 10 μL of DMSO-diluted compound in each well were further diluted into 240 μL RPMI1640 complete media. Jurkat cells were harvested by centrifuge at 1200 RPM for 5 min, washed one time with RPMI 1640 media, and suspended in fresh complete RPMI 1640 media at concentration of 1.25×10^6 cell/mL. A volume of 160 uL of Jurkat cells (2×10^5 cells) were seeded in each well of 96 well plate-bottom plates. A volume of 20 uL of diluted compound in RMPI 1640 complete media were added to each well and incubated with Jurkat cells for 30 min at 37° C. in a 5% CO2 incubator. A volume 20 μL of diluted PMA/Ionomycin (81 nM/1.3 uM respectively, ebioscience, catalog number 00-4970-93) in RMPI 1640 complete media were added to each well. After incubation at 37° C. in 5% CO2 incubator for 20 h, supernatants were harvested. IL-2 concentration was assessed by ELISA (IL2 Duoset, R&D Systems, catalog number DY202). Colorimetric intensity at 450 nm was read by Spectramax plate reader and analyzed with Softmax Pro software. Cell viability was assessed by Cell Titer Glo kit (Promega, catalog number G7571) using Victor Luminescence reader (Victor 3V 4202938 by Perkin Elmer).

[5] = tested on: IL6 secretion by TMD8 ABC-DLBCL cells; assay: Human IL6 Mesoscale assay (TMD-8); assay type: cell-based; conditions: Homo sapiens, TMD8; TMD-8 cells, 24 h
Procedure, shortened: as §1

[6] = tested on: OCI-Ly3 cells; assay: 4-day proliferation assay, OCI-Ly3; assay type: cell-based, human; conditions: Homo sapiens, 96 h, 4 days incubation, CellTiterGLO, read-out: Anti-proliferation: OCI-LY-3 IC50
Procedure, shortened: as §2

Chain of full-length MALT1 protein (Strep-MALT1(1-824)-His) (Q9UDY8 whole entry): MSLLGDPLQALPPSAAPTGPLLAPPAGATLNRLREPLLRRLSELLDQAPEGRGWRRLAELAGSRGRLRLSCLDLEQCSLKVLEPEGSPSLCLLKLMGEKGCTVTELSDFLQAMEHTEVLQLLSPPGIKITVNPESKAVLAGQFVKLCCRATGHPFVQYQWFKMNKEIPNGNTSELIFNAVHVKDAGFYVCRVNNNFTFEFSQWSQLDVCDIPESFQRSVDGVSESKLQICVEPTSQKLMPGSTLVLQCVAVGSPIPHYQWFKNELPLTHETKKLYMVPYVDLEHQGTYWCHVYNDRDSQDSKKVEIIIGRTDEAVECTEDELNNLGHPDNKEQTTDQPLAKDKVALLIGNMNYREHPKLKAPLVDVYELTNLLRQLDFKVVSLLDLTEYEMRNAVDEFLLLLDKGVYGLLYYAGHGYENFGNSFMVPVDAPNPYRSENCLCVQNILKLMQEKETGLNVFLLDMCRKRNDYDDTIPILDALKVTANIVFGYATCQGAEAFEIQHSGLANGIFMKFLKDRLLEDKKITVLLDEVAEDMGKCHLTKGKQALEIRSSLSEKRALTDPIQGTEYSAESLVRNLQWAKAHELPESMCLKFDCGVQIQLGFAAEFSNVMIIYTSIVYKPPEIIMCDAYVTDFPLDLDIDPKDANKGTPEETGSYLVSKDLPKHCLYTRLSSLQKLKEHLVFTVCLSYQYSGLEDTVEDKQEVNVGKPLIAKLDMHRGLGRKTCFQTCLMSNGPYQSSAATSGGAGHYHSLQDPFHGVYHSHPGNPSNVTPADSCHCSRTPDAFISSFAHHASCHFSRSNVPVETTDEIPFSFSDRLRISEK

SMILES | IC50 [1] [nM] | IC50 [2] [nM] | IC50 [3] [nM] | IC50 [4] [nM] | IC50 [5] [nM] | IC50 [6] [nM]
O=C(Nc1cnc(N2CCCS2(=O)=O)c(Cl)c1)c1cnn(-c2cncc3ccccc23)c1C(F)(F)F [Cpd 42, N-(5-Chloro-6-(1,1-dioxidoisothiazolidin-2-yl)pyridin-3-yl)-1-(isoquinolin-4-yl)-5-(trifluoromethyl)-1H-pyrazole-4-carboxamide] | 162 | ~110 | 6170 | 11 | 117 | 560
O=C(Nc1ccc(-n2nccn2)c(Cl)c1)c1cnn(-c2cncc3ccccc23)c1C(F)(F)F [Cpd 38, N-(3-chloro-4-(2H-1,2,3-triazol-2-yl)phenyl)-1-(isoquinolin-4-yl)-5-(trifluoromethyl)-1H-pyrazole-4-carboxamide] | 20 | 14 | 3800 | 21 | 46 | 1150
CN1CCN(C(=O)c2ncc(NC(=O)c3cnn(-c4cncc5ccccc45)c3C(F)(F)F)cc2Cl)CC1 [Cpd 48, N-(5-chloro-6-(4-methylpiperazine-1-carbonyl)pyridin-3-yl)-1-(isoquinolin-4-yl)-5-(trifluoromethyl)-1H-pyrazole-4-carboxamide] | 631 | ~2140 | 16200 | 450 | ~830 | 300
O=C(Nc1cnc(-n2nccn2)c(Cl)c1)c1cnn(-c2cccc3occc23)c1C(F)(F)F [Cpd 34, 1-(Benzofuran-4-yl)-N-(5-chloro-6-(2H-1,2,3-triazol-2-yl)pyridin-3-yl)-5-(trifluoromethyl)-1H-pyrazole-4-carboxamide] | 9 | 7 | ~12000 | 16 | ~11 | ~220
Cc1ncn(-c2ccc(NC(=O)c3cnn(-c4cncc5ccccc45)c3C(F)(F)F)cc2Cl)n1 [Cpd 55, N-(3-chloro-4-(3-methyl-1H-1,2,4-triazol-1-yl)phenyl)-1-(isoquinolin-4-yl)-5-(trifluoromethyl)-1H-pyrazole-4-carboxamide] | 182 | 195 | 5250 | 130 | ~93 | 540
Cc1ncnn1-c1ccc(NC(=O)c2cnn(-c3cncc4ccccc34)c2C(F)(F)F)cc1Cl [Cpd 51, N-(3-Chloro-4-(5-methyl-1H-1,2,4-triazol-1-yl)phenyl)-1-(isoquinolin-4-yl)-5-(trifluoromethyl)-1H-pyrazole-4-carboxamide] | 45 | 126 | ~6610 | 96 | 62 | 200
O=C(Nc1cncc(C(F)(F)F)c1)c1cnn(-c2cccc3ccccc23)c1C(F)(F)F [Cpd 4, 1-(Naphthalen-1-yl)-5-(trifluoromethyl)-N-(5-(trifluoromethyl)pyridin-3-yl)-1H-pyrazole-4-carboxamide] | 200 | 214 | ~15800 | 360 | 339 | ~500
Cc1ncnn1-c1ncc(NC(=O)c2cnn(-c3cncc4ccccc34)c2C(F)(F)F)cc1Cl [Cpd 54, N-(5-Chloro-6-(5-methyl-1H-1,2,4-triazol-1-yl)pyridin-3-yl)-1-(isoquinolin-4-yl)-5-(trifluoromethyl)-1H-pyrazole-4-carboxamide] | 275 | 269 | 8710 | 370 | 110 | 460
Cc1ncn(-c2ncc(NC(=O)c3cnn(-c4cncc5ccccc45)c3C(F)(F)F)cc2Cl)n1 [Cpd 53, N-(5-Chloro-6-(3-methyl-1H-1,2,4-triazol-1-yl)pyridin-3-yl)-1-(isoquinolin-4-yl)-5-(trifluoromethyl)-1H-pyrazole-4-carboxamide] | 100 | 240 | ~13500 | 380 | 200 | 1070
